According to patent publication US9476099B2 (TRUSTEES OF DARTMOUTH COLLEGE, priority 2012, dated 2016):

Tested on: gene promoters in NT2/D1-R1 control and DNMT3B knockdown cells
Test: Genome-wide promoter methylation analysis, HumanMethylation27 BeadChip (Table 15)
Assay type: cell-based, human
Conditions: sh-ctrl + 5aza
Method: DNA methylation analysis was performed in samples in triplicate using the […] […] assay with the HumanMethylation27 BeadChip ([…]) and the BeadChip was scanned on the BeadArray Reader ([…]), according to the manufacturer's instructions. Raw data was normalized and analyzed with Genome Studio software ([…]). The HumanMethylation27 BeadChip assays 27,578 CpGs covering more than 14,000 genes, mostly from promoter regions. […] Hierarchical clustering was performed as stated above. HumanMethylation27 BeadChip data and gene expression microarray data were submitted to NCBI GEO.

SMILES: Nc1ncn([C@H]2C[C@H](O)[C@@H](CO)O2)c(=O)n1 [5aza]
- ABCC1 cg20158248 promoter methylation Mean: 0.480
- ACP1 cg27226618 promoter methylation Mean: 0.786
- ADCY4 cg16761581 promoter methylation Mean: 0.609
- ADRA2A cg26926521 promoter methylation Mean: 0.939
- ALDH1A3 cg19224278 promoter methylation Mean: 0.443
- ALKBH4 cg07404418 promoter methylation Mean: 0.458
- ALX4 cg04549333 promoter methylation Mean: 1.136
- ALX4 cg04970352 promoter methylation Mean: 0.964
- ALX4 cg19358442 promoter methylation Mean: 1.126
- ANKRD13C cg19342782 promoter methylation Mean: 0.544
- ANKRD45 cg15883716 promoter methylation Mean: 1.017
- APC cg16970232 promoter methylation Mean: 0.424
- BLOC1S2 cg26610808 promoter methylation Mean: 0.575
- BTBD5 cg00660989 promoter methylation Mean: 0.347
- BTNL8 cg24024214 promoter methylation Mean: 1.068
- C1QL1 cg13818573 promoter methylation Mean: 0.460
- C1orf188 cg15731815 promoter methylation Mean: 0.541
- C10orf107 cg16063112 promoter methylation Mean: 0.354
- C14orf173 cg24404909 promoter methylation Mean: 0.379
- C16orf60 cg17858663 promoter methylation Mean: 0.245
- C19orf4 cg07379574 promoter methylation Mean: 1.078
- C19orf22 cg18022193 promoter methylation Mean: 0.288
- CAMK1G cg27337148 promoter methylation Mean: 1.021
- CD58 cg21039631 promoter methylation Mean: 0.251
- CDKN2B cg04675937 promoter methylation Mean: 0.256
- CDKN2B cg08390209 promoter methylation Mean: 0.280
- CDX1 cg15452204 promoter methylation Mean: 0.595
- CEACAM4 cg10237469 promoter methylation Mean: 0.718
- CEACAM7 cg19623751 promoter methylation Mean: 0.886
- CGI-38 cg13067215 promoter methylation Mean: 0.513
- CHD5 cg00282347 promoter methylation Mean: 1.005
- CHMP2A cg14042128 promoter methylation Mean: 0.541
- COL11A1 cg12884406 promoter methylation Mean: 0.415
- COPS7B cg05422352 promoter methylation Mean: 0.579
- CRSP7 cg24459023 promoter methylation Mean: 0.301
- CSPG3 cg06952310 promoter methylation Mean: 0.480
- CSTF2T cg06712026 promoter methylation Mean: 0.431
- CTAGE1 cg02847216 promoter methylation Mean: 0.955
- CUL3 cg09509863 promoter methylation Mean: 0.411
- CYP4F12 cg25813714 promoter methylation Mean: 0.959
- DCTD cg14892066 promoter methylation Mean: 0.243
- DDEF2 cg22190705 promoter methylation Mean: 0.329
- DEFB118 cg03014957 promoter methylation Mean: 0.690
- DNASE2 cg07955356 promoter methylation Mean: 0.275
- DPH1 cg11516377 promoter methylation Mean: 0.465
- DYRK1B cg18851831 promoter methylation Mean: 1.262
- EIF2B3 cg16604218 promoter methylation Mean: 0.543
- ELSPBP1 cg19404979 promoter methylation Mean: 0.655
- ENOSF1 cg16112050 promoter methylation Mean: 1.028
- EPN3 cg24006361 promoter methylation Mean: 1.019
- EREG cg19308222 promoter methylation Mean: 0.356
- FAM111B cg13864937 promoter methylation Mean: 0.508
- FLJ10726 cg14145762 promoter methylation Mean: 0.436
- FLJ11200 cg09001953 promoter methylation Mean: 0.482
- FLJ23514 cg16404106 promoter methylation Mean: 0.628
- FLRT3 cg23127998 promoter methylation Mean: 0.397
- FLT3LG cg01667384 promoter methylation Mean: 0.249
- FXYD7 cg22392666 promoter methylation Mean: 1.028
- G10 cg02798801 promoter methylation Mean: 0.608
- GABRB2 cg16509658 promoter methylation Mean: 0.219
- GALNT4 cg16606638 promoter methylation Mean: 0.265
- GAS8 cg03634997 promoter methylation Mean: 1.082
- GBX2 cg23095584 promoter methylation Mean: 0.468
- GNAS cg27661264 promoter methylation Mean: 0.565
- GRB10 cg26163537 promoter methylation Mean: 0.312
- GUP1 cg24938727 promoter methylation Mean: 0.640
- HACE1 cg23047681 promoter methylation Mean: 0.204
- HGF cg06745740 promoter methylation Mean: 0.594
- HNRNPG-T cg22062068 promoter methylation Mean: 0.977
